# Measured values taken from patent publication US20260028354A1, “TETRAHYDRONAPHTHALENE DERIVATIVES AS ESTROGEN RECEPTOR DEGRADERS” (REGENT OF THE UNIVERSITY OF MICHIGAN, priority 2022, published 2026).
# Experiment: Western blot analysis for "B" compounds
# Type: cell-based
# Conditions: read-out: Traditional Western Degradation Potency (DC50)
# How it was run: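 Compound-treated cells lysed in RIPA buffer with protease inhibitors; equal protein (BCA) run on 10% SDS-PAGE, transferred to PVDF and probed with target antibodies. Band intensities quantified by densitometry and normalized to GAPDH.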
row,Compound,DC50
1,"O=C1CCC(N2Cc3cc4c(cc3C2=O)CN(C[C@H]2CC[C@H](C(=O)N3CC(Oc5ccc([C@@H]6c7ccc(O)cc7CC[C@@H]6c6ccccc6)cc5)C3)CC2)C4)C(=O)N1 (stereo partly drawn) [Compound B294, 3-(6-(((1R,4r)-4-(3-(4-((1R,2S)-6-hydroxy-2-phenyl-1,2,3,4-tetrahydronaphthalen-1-yl)phenoxy)azetidine-1-carbonyl)cyclohexyl)methyl)-1-oxo-3,5,6,7-tetrahydropyrrolo[3,4-f]isoindol-2(1H)-yl)piperidine-2,6-dione]",< 10 nM
2,"O=C1CCC(N2Cc3c(ccc4c3OC[C@H]3CN(C(=O)C5CCN(c6ccc([C@@H]7c8ccc(O)cc8CC[C@@H]7c7ccccc7)cc6)CC5)CCN43)C2=O)C(=O)N1 (stereo partly drawn) [Compound B295, 3-((R)-7-(1-(4-((1R,2S)-6-hydroxy-2-phenyl-1,2,3,4-tetrahydronaphthalen-1-yl)phenyl)piperidine-4-carbonyl)-1-oxo-1,3,5,5a,6,7,8,9-octahydro-2H-pyrazino[1′,2′:4,5][1,4]oxazino[2,3-e]isoindol-2-yl)piperidine-2,6-dione]",> 100 nM
3,"O=C1CCC(N2C(=O)c3cc4c(cc3C2=O)CC2(C4)CN(CC3CCN(c4ccc([C@@H]5c6ccc(O)cc6CC[C@@H]5c5ccccc5)cc4)CC3)C2)C(=O)N1 (stereo partly drawn) [Compound B296, 2′-(2,6-dioxopiperidin-3-yl)-1-((1-(4-((1R,2S)-6-hydroxy-2-phenyl-1,2,3,4-tetrahydronaphthalen-1-yl)phenyl)piperidin-4-yl)methyl)-5′,7′-dihydro-1′H-spiro[azetidine-3,6′-cyclopenta[f]isoindole]-1′,3′(2'H)-dione]",> 100 nM
4,"O=C1CCC(N2C(=O)c3cc4c(cc3C2=O)CC2(C4)CN(C(=O)C3CCN(c4ccc([C@@H]5c6ccc(O)cc6CC[C@@H]5c5ccccc5)cc4)CC3)C2)C(=O)N1 (stereo partly drawn) [Compound B297, 2′-(2,6-dioxopiperidin-3-yl)-1-(1-(4-((1R,2S)-6-hydroxy-2-phenyl-1,2,3,4-tetrahydronaphthalen-1-yl)phenyl)piperidine-4-carbonyl)-5′,7′-dihydro-1′H-spiro[azetidine-3,6′-cyclopenta[f]isoindole]-1′,3′(2'H)-dione]",> 100 nM
5,"O=C1CCC(N2Cc3c(ccc4c3OC[C@H]3CN(CC5CCN(c6ccc([C@@H]7c8ccc(O)cc8CC[C@@H]7c7ccccc7)cc6)CC5)CCN43)C2=O)C(=O)N1 (stereo partly drawn) [Compound B298, 3-((R)-7-((1-(4-((1R,2S)-6-hydroxy-2-phenyl-1,2,3,4-tetrahydronaphthalen-1-yl)phenyl)piperidin-4-yl)methyl)-1-oxo-1,3,5,5a,6,7,8,9-octahydro-2H-pyrazino[1′,2′:4,5][1,4]oxazino[2,3-e]isoindol-2-yl)piperidine-2,6-dione]",10 to 100 nM
6,"O=C1CCC(N2C(=O)c3cc4c(cc3C2=O)CC2(C4)CN(C(=O)CN3CC(Oc4ccc([C@@H]5c6ccc(O)cc6CC[C@@H]5c5ccccc5)cc4)C3)C2)C(=O)N1 (stereo partly drawn) [Compound B299, 2′-(2,6-dioxopiperidin-3-yl)-1-(2-(3-(4-((1R,2S)-6-hydroxy-2-phenyl-1,2,3,4-tetrahydronaphthalen-1-yl)phenoxy)azetidin-1-yl)acetyl)-5′,7′-dihydro-1'H-spiro[azetidine-3,6′-cyclopenta[f]isoindole]-1′,3′(2'H)-dione]",> 100 nM
7,"O=C1CCC(N2C(=O)c3cc4c(cc3C2=O)CC2(C4)CN(CC(=O)N3CC(Oc4ccc([C@@H]5c6ccc(O)cc6CC[C@@H]5c5ccccc5)cc4)C3)C2)C(=O)N1 (stereo partly drawn) [Compound B300, 2′-(2,6-dioxopiperidin-3-yl)-1-(2-(3-(4-((1R,2S)-6-hydroxy-2-phenyl-1,2,3,4-tetrahydronaphthalen-1-yl)phenoxy)azetidin-1-yl)-2-oxoethyl)-5′,7′-dihydro-1'H-spiro[azetidine-3,6′-cyclopenta[f]isoindole]-1′,3′(2′H)-dione]",> 100 nM
